In BigSolDB 2.1:

O=S(=O)([O-])c1cccc2c(S(=O)(=O)[O-])cccc12.[Na+].[Na+]
solubility (mole fraction)
Conditions	in acetone	in ethanol	in isopropanol	in methanol	in water
283.15 K	5.45e-05	0.000107	2.55e-05	0.00017	0.00572
293.15 K	5.92e-05	0.00011	5.68e-05	0.000221	0.00664
303.15 K	7.41e-05	0.00011	6.45e-05	0.000251	0.00784
313.15 K	9.49e-05	0.000147	8.74e-05	0.00027	0.00919
323.15 K	9.73e-05	0.000184	9.19e-05	0.00028	0.0106
